The results in this text go back to publication PMC6717735, “Therapeutic Effect of pHLIP-mediated CEACAM6 Gene Silencing in Lung Adenocarcinoma” (Scientific Reports, 2019).

Assay [1] deals with A549 tumours. Nature of the assay: A549 xenograft tumour growth. Type of assay: in vivo, BALB/c nude mice. As to conditions: compared with vehicle-treated mice; for reduction in tumour growth: n = 5. On the procedure: We first assessed the knockdown efficacy of delivered […]6 in vivo. For in vivo analysis, BALB/c nude mice were subcutaneously injected with 1.2 × 10^7 A549 cells. Two weeks after tumour initiation, […]6 was injected into the mice via the tail vein with saline used as a negative control. To determine the optimal amount of […]6 for injection, two groups of mice (n = 5 mice/group) were injected with different doses (2 mg/kg and 4 mg/kg) twice per week for 3 weeks. Because cisplatin is the backbone of lung cancer treatment, cisplatin-treated mice served as the positive control. […] After 3 weeks of treatment, all mice were sacrificed. Next, we assessed the antitumour effects of concurrent chemotherapy and CEACAM6 targeting. […] According to the in vivo results, a dose of 2 mg/kg […]6 was selected for combination treatment. […] Tumour volume was measured every 2-3 days. […] None of the mice included in the therapeutic experiments experienced overt body weight loss or organ damage over the treatment period (Supplementary Fig. 5a,b). All animal work was performed in accordance with a protocol approved by the Institutional Animal Care and Use Committee of the Korea Research Institute of Bioscience and Biotechnology. A549 cells were subcutaneously injected into the right flanks of 5-week-old BALB/c athymic nude mice (n = 5 mice/group; 1.2 × 10^7 cells/mouse). Tumour growth was determined by measuring the length (L), width (W), and height (H) with callipers and using the formula V = (L × W × H) × 0.5.

The subject of assay [2] is A549 tumours. Put plainly: Ki-67 immunostaining of xenograft tumours (proliferation). It is filed as in vivo, BALB/c nude mice. As to conditions: n = 5 tumours/group. The protocol: Mice were killed by carbon dioxide asphyxiation. Staining was performed in formalin-fixed, paraffin-embedded tumour sections (4-μm thickness). Fully automated immunostaining was achieved using a BenchMark XT autostainer (Ventana Medical Systems Inc., Tucson, AZ, USA). The following antibodies were used: monoclonal mouse anti-human CEACAM6 (9A6, 1:4,000; Santa Cruz Biotechnology Inc.), anti-CC3 (1:100, BioCare Medical, Pacheco, CA, USA), and anti-Ki-67 (1:100, VP-K452; Vector Laboratory, Burlington, Canada). The number of positive cells per tumour area was quantified.

For `N.N.[Cl][Pt][Cl]` [cisplatin], the “reduction in tumour growth” value in assay [1] (2 mg/kg intraperitoneally 3 times/week for 3 weeks) was 46.7%; in assay [1] (2 mg/kg intraperitoneally twice/week for 3 weeks), 35.0%. Moreover, the “reduction in tumour volume” value in assay [1] (combination study: pHLIP-siCEACAM6 2 mg/kg via tail vein, cisplatin intraperitoneally, twice per week for 3 weeks, n = 5 mice/group) was found to be 29.9%. The “cell proliferation in tumours (Ki-67 staining)” value in assay [2] (combination study, after 3 weeks of systemic therapy) is given as 18.4%. For the same compound, the “proliferation level (Ki-67 staining)” value in assay [2] (single-agent study, tumours harvested after 3 weeks) is listed as 11.2%.
